How the values were obtained:
AR = target: T1, AR (Homo sapiens, UniProt P10275, T878A); test: Effects of compounds on AR expression in LNCaP cells (ELISA, DC50); format: cell-based; set-up: Measurement of the Effects of Drugs on the Expression of AR in Cells by ELISA Method; endogenous in cells; host or cells: LNCaP; conditions: 24 hours of drug treatment, AR by ELISA
T1 sequence (P10275 1-920 T878A): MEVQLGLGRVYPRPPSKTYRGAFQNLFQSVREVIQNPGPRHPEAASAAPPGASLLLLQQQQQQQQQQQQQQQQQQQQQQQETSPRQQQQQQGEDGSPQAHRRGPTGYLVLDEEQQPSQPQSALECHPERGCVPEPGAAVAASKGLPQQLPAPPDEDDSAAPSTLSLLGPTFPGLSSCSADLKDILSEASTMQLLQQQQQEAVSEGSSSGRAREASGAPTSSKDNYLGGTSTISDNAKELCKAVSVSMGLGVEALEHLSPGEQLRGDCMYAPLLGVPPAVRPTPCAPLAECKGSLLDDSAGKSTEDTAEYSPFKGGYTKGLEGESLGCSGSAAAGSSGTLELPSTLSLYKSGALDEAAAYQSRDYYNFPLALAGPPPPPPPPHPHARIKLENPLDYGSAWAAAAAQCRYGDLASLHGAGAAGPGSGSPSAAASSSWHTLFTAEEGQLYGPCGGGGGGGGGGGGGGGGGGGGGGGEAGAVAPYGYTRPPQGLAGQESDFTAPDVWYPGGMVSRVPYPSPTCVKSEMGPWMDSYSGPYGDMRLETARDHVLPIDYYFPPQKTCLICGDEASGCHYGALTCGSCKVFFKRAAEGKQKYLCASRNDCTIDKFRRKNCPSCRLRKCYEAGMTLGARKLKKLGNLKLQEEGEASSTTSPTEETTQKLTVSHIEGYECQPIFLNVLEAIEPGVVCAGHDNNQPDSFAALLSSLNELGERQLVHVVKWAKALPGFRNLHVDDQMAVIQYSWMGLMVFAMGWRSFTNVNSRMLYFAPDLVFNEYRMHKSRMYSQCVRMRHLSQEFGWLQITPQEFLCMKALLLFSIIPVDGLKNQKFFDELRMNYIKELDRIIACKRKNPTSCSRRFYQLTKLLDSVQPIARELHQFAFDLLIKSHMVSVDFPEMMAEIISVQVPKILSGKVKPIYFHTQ
Outline: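 LNCaP cells at about 15,000/well were treated for 24 h with compound at 0.0001–2 μmol/L final. AR in cell lysates was measured by ELISA (OD450). Inhibition was relative to DMSO control after blank subtraction, and DC50 was calculated from it.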

[1] = Pharmacokinetic studies of compounds in mice; format: in vivo; conditions: male mice, intragastric administration 10 mg/kg, plasma
Protocol: Activity Assay Example 3: Pharmacokinetic Studies of Compounds in Mice
In this test, 3 male mice were selected and divided into 1 group, 3 mice/group. All animals were fasted overnight before administration.
The intragastric administration dose was 10 mg/kg, and the administration volume was 10 mL/kg.
2.2 Preparation of Drug Solution
According to the animal body weight combined with the administration dose, the amount of the required drug solution was calculated. An appropriate amount of the test substance was weighed, added with 5% of the final volume of ethanol for dissolution, then added with 5% of the final volume of SolutolHS15, and finally added with PBS to the final volume, and mixed by vortex and fully dissolved to obtain a solution for intragastric administration (1 mg/mL). All solutions were prepared for immediate use.
2.3 Method of Administration
Before administration, the drug solution was placed on a magnetic stirrer in the animal laboratory and stirred for at least 10 min. During the administration process, vortex was continued to ensure uniformity of the drug solution. The theoretical volume of gavage administration was 10 mL/kg, which was administered with a syringe equipped with a gavage needle.
Before administration, the animals were weighed and the body weight of the animals involved in the experiment was recorded, and the administration volume of each animal was calculated according to the body weight. After administration, animals were promptly transferred back to the experimental cages to collect samples.
2.4 Observation of Animal Status
After administration, whether animals had abnormal reactions was observed immediately. If there were no abnormal reactions, animals were observed twice a day during the experiment. If abnormal reactions were found, they should be recorded in time, and the number of observations should be increased until the animals returned to normal or to the end of the experiment.
2.5 Sample Collection and Preservation
All experimental animals were fasted overnight before administration, and blood was collected at corresponding time points into blood collection tubes containing heparin sodium anticoagulant. After the whole blood was collected, the blood collection tube was gently shaken and placed on ice immediately, and then centrifuged (4° C., 4000 rpm, 10 min) to collect supernatant plasma samples, which were stored in a refrigerator at −80° C. before analysis.
2.6 Plasma Sample Processing and Analysis
The collected plasma samples were handed over to the Pharmacokinetic department for sample extraction, and the test substances in the plasma were extracted by protein precipitation method using organic reagents containing internal standards (acetonitrile:plasma=4:1, v/v). The extracted processed samples were submitted for quantitative concentration analysis by LC-MS/MS. According to the plasma concentration of each animal obtained by the analysis, software Kinetica (version 5.0) was used to calculate the main pharmacokinetic parameter eAUC30-120 according to the non-compartment model to evaluate the exposure amount; the test results are shown in Table 2: […]

Row | SMILES | DC50 (AR) | eAUC0.5-2 h [1]
1 | Cc1ncsc1-c1ccc([C@H](C)NC(=O)[C@@H]2C[C@@H](O)CN2C(=O)[C@@H](NC(=O)COCCCCCOc2ccc(-c3ncc(N4C(=S)N(c5ccc(C#N)c(C(F)(F)F)c5F)C(=O)C4(C)C)cc3F)cc2F)C(C)(C)C)cc1 [Compound A112] | 153 nM | 383 ± 165 ng·h/mL
2 | Cc1ncsc1-c1ccc(CNC(=O)[C@@H]2C[C@@H](O)CN2C(=O)[C@@H](NC(=O)COCCOCCOc2ccc(-c3ncc(N4C(=S)N(c5ccc(C#N)c(C(F)(F)F)c5F)C(=O)C4(C)C)cc3C(F)(F)F)cc2)C(C)(C)C)cc1 [Compound A93] | 51.1 nM | 275 ± 116 ng·h/mL
3 | Cc1ncsc1-c1ccc(CNC(=O)[C@@H]2C[C@@H](O)CN2C(=O)[C@@H](NC(=O)c2ccc(CNC(=O)CCCc3ccc(N4C(=S)N(c5ccc(C#N)c(C(F)(F)F)c5F)C(=O)C4(C)C)cn3)cc2)C(C)(C)C)cc1 [Compound A134] | 1130 nM | 29 ± 22 ng·h/mL
4 | Cc1ncsc1-c1ccc(CNC(=O)[C@@H]2C[C@@H](O)CN2C(=O)[C@@H](NC(=O)COCCCCOc2c(F)cc(-c3ccc(N4C(=S)N(c5ccc(C#N)c(C(F)(F)F)c5F)C(=O)C4(C)C)cn3)cc2F)C(C)(C)C)cc1 [Compound A103] | 152 nM | 984 ± 617 ng·h/mL
5 | Cc1ncsc1-c1ccc(CNC(=O)[C@@H]2C[C@@H](O)CN2C(=O)[C@@H](NC(=O)COCCCCOc2ccc(-c3ncc(N4C(=S)N(c5ccc(C#N)c(C(F)(F)F)c5F)C(=O)C4(C)C)cc3C(F)(F)F)cc2)C(C)(C)C)cc1 [Compound A62] | 80 nM | 498 ± 124 ng·h/mL
6 | Cc1ncsc1-c1ccc(CNC(=O)[C@@H]2C[C@@H](O)CN2C(=O)[C@@H](NC(=O)COCCCCOc2ccc(-c3ncc(N4C(=S)N(c5ccc(C#N)c(C(F)(F)F)c5F)C(=O)C4(C)C)cc3C(F)(F)F)c(C(F)(F)F)c2)C(C)(C)C)cc1 [Compound A101] | 115 nM | 508 ± 171 ng·h/mL
7 | Cc1ncsc1-c1ccc(CNC(=O)[C@@H]2C[C@@H](O)CN2C(=O)[C@@H](NC(=O)COCCOc2ccc(-c3ncc(N4C(=S)N(c5ccc(C#N)c(C(F)(F)F)c5F)C(=O)C4(C)C)cc3F)cc2F)C(C)(C)C)cc1 [Compound A91] | 108 nM | 3160 ± 2820 ng·h/mL
8 | Cc1ncsc1-c1ccc(CNC(=O)[C@@H]2C[C@@H](O)CN2C(=O)[C@@H](NC(=O)COCCCCOc2ccc(-c3ccc(N4C(=S)N(c5ccc(C#N)c(C(F)(F)F)c5F)C(=O)C4(C)C)cn3)cc2C(F)(F)F)C(C)(C)C)cc1 [Compound A84] | 140 nM | 774 ± 119 ng·h/mL
9 | Cc1ncsc1-c1ccc(CNC(=O)[C@@H]2C[C@@H](O)CN2C(=O)[C@@H](NC(=O)[C@H]2CC[C@H](CNC(=O)c3ccc(-c4ccc(N5C(=S)N(c6ccc(C#N)c(C(F)(F)F)c6F)C(=O)C5(C)C)cn4)cc3F)CC2)C(C)(C)C)cc1 [Compound A105] | 188 nM | 379 ± 300 ng·h/mL
10 | Cc1ncsc1-c1ccc2[nH]c([C@@H]3C[C@@H](O)CN3C(=O)[C@@H](NC(=O)COCCCCOc3ccc(-c4ncc(N5C(=S)N(c6ccc(C#N)c(C(F)(F)F)c6F)C(=O)C5(C)C)cc4F)cc3F)C(C)(C)C)nc2c1 [Compound A138] | 1500 nM | 471 ± 288 ng·h/mL
11 | Cc1ncsc1-c1ccc(CNC(=O)[C@@H]2C[C@@H](O)CN2C(=O)[C@@H](NC(=O)COCCCCOc2c(F)cc(-c3ncc(N4C(=S)N(c5ccc(C#N)c(C(F)(F)F)c5F)C(=O)C4(C)C)cc3F)cc2F)C(C)(C)C)cc1 [Compound A77] | 114 nM | 1354 ± 205 ng·h/mL
12 | Cc1ncsc1-c1ccc([C@H](CC(=O)NCCN2CCC(C#Cc3ccc(N4C(=S)N(c5ccc(C#N)c(C(F)(F)F)c5F)C(=O)C4(C)C)cc3)CC2)NC(=O)[C@@H]2C[C@@H](O)CN2C(=O)[C@@H](NC(=O)C2(F)CC2)C(C)(C)C)cc1 [Compound A139] | 225 nM | 53 ± 30 ng·h/mL
13 | Cc1ncsc1-c1ccc(CNC(=O)[C@@H]2C[C@@H](O)CN2C(=O)[C@@H](NC(=O)COCCOCCOc2ccc(-c3ncc(N4C(=S)N(c5ccc(C#N)c(C(F)(F)F)c5F)C(=O)C4(C)C)cc3F)cc2F)C(C)(C)C)cc1 [Compound A90] | 36.4 nM | 96 ± 28.51 ng·h/mL
14 | Cc1ncsc1-c1ccc(CNC(=O)[C@@H]2C[C@@H](O)CN2C(=O)[C@@H](NC(=O)COCCCCOc2ccc(-c3ncc(N4C(=S)N(c5ccc(C#N)c(C(F)(F)F)c5F)C(=O)C4(C)C)cn3)cc2F)C(C)(C)C)cc1 [Compound A111] | 46.2 nM | 297 ± 78 ng·h/mL
15 | Cc1ncsc1-c1ccc(CNC(=O)[C@@H]2C[C@@H](O)CN2C(=O)[C@@H](NC(=O)COCCOCCOc2ccc(-c3ccc(N4C(=S)N(c5ccc(C#N)c(C(F)(F)F)c5F)C(=O)C4(C)C)cn3)cc2F)C(C)(C)C)cc1 [Compound A85] | 33 nM | 70 ± 23 ng·h/mL
16 | Cc1ncsc1-c1ccc([C@H](C)NC(=O)[C@@H]2C[C@@H](O)CN2C(=O)[C@@H](NC(=O)COCCCCOc2ccc(-c3ncc(N4C(=S)N(c5ccc(C#N)c(C(F)(F)F)c5F)C(=O)C4(C)C)cc3F)cc2F)C(C)(C)C)cc1 [Compound A110] | 56.4 nM | 1098 ± 208 ng·h/mL
17 | Cc1ncsc1-c1ccc([C@H](C)NC(=O)[C@@H]2C[C@@H](O)CN2C(=O)[C@@H](NC(=O)COCCOc2ccc(-c3ncc(N4C(=S)N(c5ccc(C#N)c(C(F)(F)F)c5F)C(=O)C4(C)C)cc3F)cc2F)C(C)(C)C)cc1 [Compound A123] | 61.3 nM | 287 ± 146 ng·h/mL
18 | Cc1ncsc1-c1ccc([C@H](C)NC(=O)[C@@H]2C[C@@H](O)CN2C(=O)[C@@H](NC(=O)COCCCCOc2ccc(-c3ncc(N4C(=S)N(c5ccc(C#N)c(C(F)(F)F)c5F)C(=O)C4(C)C)cc3F)c(C(F)(F)F)c2)C(C)(C)C)cc1 [Compound A109] | 71.4 nM | 557 ± 108 ng·h/mL
19 | Cc1ncsc1-c1ccc(CNC(=O)[C@@H]2C[C@@H](O)CN2C(=O)[C@@H](NC(=O)COCCCCOc2ccc(-c3ncc(N4C(=S)N(c5ccc(C#N)c(C(F)(F)F)c5F)C(=O)C4(C)C)cc3F)cc2C#N)C(C)(C)C)cc1 [Compound A78] | 57.4 nM | 187 ± 66 ng·h/mL
20 | Cc1ncsc1-c1ccc(CNC(=O)[C@@H]2C[C@@H](O)CN2C(=O)[C@@H](NC(=O)COCCOCCOc2c(F)cc(-c3ncc(N4C(=S)N(c5ccc(C#N)c(C(F)(F)F)c5F)C(=O)C4(C)C)cc3F)cc2F)C(C)(C)C)cc1 [Compound A99] | 23.2 nM | 308 ± 288 ng·h/mL

— US12606552B2, “Bifunctional compound, preparation method therefor, and use thereof” (SUZHOU KINTOR PHARMACEUTICALS, INC., priority 2020, dated 2026)
